Laboratory results reported in patent US5693668A, “Acetylcholinesterase inhibitors” (priority 1989, dated 1997).
Like-named read-outs stand apart in the source and are kept apart here.

Experiment: Pharmacokinetics and bioavailability of [14C]-MDL 73,745 in Beagle dogs
Type: in vivo, Beagle dog
Conditions: for half-life / clearance / Vd / Cmax / Tmax / bioavailability: dog, in vivo; for Vd: read-out: aVd; for bioavailability: normalized to 2 mg/kg iv
Protocol: Three male Beagle dogs were studied. Animals were fasted 12 h before drug administration but had free access to drinking water. The following single doses of [^14 C]-MDL 73,745 were administered: intravenous (iv): 1 and 2 mg/kg; oral (po): 10 mg/kg; subcutaneous (sc): 10 mg/kg. There was a two week wash-out period between each administration. Drug was administered as a suspension in 0.5% methyl cellulose. […]

[1] = iv, 2 mg/kg, iv 2 mg/kg, dog No. 17
[2] = iv, 2 mg/kg, iv 2 mg/kg, dog No. 18
[3] = iv, 2 mg/kg, iv 2 mg/kg, dog No. 19
[4] = iv, 2 mg/kg, iv 2 mg/kg, mean ± SD of 3 dogs
[5] = po, 10 mg/kg, oral 10 mg/kg, dog No. 17
[6] = po, 10 mg/kg, oral 10 mg/kg, dog No. 18
[7] = po, 10 mg/kg, oral 10 mg/kg, dog No. 19
[8] = po, 10 mg/kg, oral 10 mg/kg, mean ± SD of 3 dogs
[9] = sc, 10 mg/kg, subcutaneous 10 mg/kg, dog No. 17
[10] = sc, 10 mg/kg, subcutaneous 10 mg/kg, dog No. 18
[11] = sc, 10 mg/kg, subcutaneous 10 mg/kg, dog No. 19
[12] = sc, 10 mg/kg, subcutaneous 10 mg/kg, mean ± SD of 3 dogs

Question: For `C[Si](C)(C)c1cccc(C(=O)C(F)(F)F)c1` [MDL 73,745, 2,2,2-Trifluoro-1-(3-trimethylsilylphenyl) ethanone], which half-life [1] is on record?
Answer: 18.6 h

Question: What about the clearance (iv, 2 mg/kg, iv 2 mg/kg, dog No. 17, read-out: Cltot) of the same compound?
Answer: 78.3 mL/min/kg

Question: What about the Vd [1] of the same compound?
Answer: 125 L/kg

Question: And the half-life [2]?
Answer: 28.1 h

Question: And the clearance (iv, 2 mg/kg, iv 2 mg/kg, dog No. 18, read-out: Cltot)?
Answer: 63.3 mL/min/kg

Question: What about the Vd [2] of the same compound?
Answer: 153 L/kg

Question: And the half-life [3]?
Answer: 26.2 h

Question: What about the clearance (iv, 2 mg/kg, iv 2 mg/kg, dog No. 19, read-out: Cltot) of the same compound?
Answer: 100 mL/min/kg

Question: And the Vd [3]?
Answer: 228 L/kg

Question: And the half-life [4]?
Answer: 24.3 ± 5 h

Question: And the clearance (iv, 2 mg/kg, iv 2 mg/kg, mean ± SD of 3 dogs, read-out: Cltot)?
Answer: 80.5 ± 18.5 mL/min/kg

Question: What about the Vd [4] of the same compound?
Answer: 169 ± 53.3 L/kg

Question: And the clearance (iv, iv data, read-out: drug clearance)?
Answer: 960 mL/min

Question: And the Cmax [5]?
Answer: 15.8 ng/mL

Question: And the Tmax [5]?
Answer: 1 h

Question: And the half-life [5]?
Answer: 21.4 h

Question: What about the Cmax [6] of the same compound?
Answer: 15.3 ng/mL

Question: What about the Tmax [6] of the same compound?
Answer: 0.17 h

Question: What about the half-life [6] of the same compound?
Answer: 29.5 h

Question: What about the Cmax [7] of the same compound?
Answer: 21.8 ng/mL

Question: What about the Tmax [7] of the same compound?
Answer: 1 h

Question: What about the half-life [7] of the same compound?
Answer: 17.4 h

Question: What about the Cmax [8] of the same compound?
Answer: 17.7 ± 3.58 ng/mL

Question: And the Tmax [8]?
Answer: 0.72 ± 0.48 h

Question: What about the half-life [8] of the same compound?
Answer: 22.8 ± 6.2 h

Question: What about the bioavailability (po, 10 mg/kg, oral 10 mg/kg, dog No. 17, read-out: F (AUCpo /AUCiv)) of the same compound?
Answer: 3.4%

Question: And the bioavailability (po, 10 mg/kg, oral 10 mg/kg, dog No. 18, read-out: F (AUCpo /AUCiv))?
Answer: 2.6%

Question: What about the bioavailability (po, 10 mg/kg, oral 10 mg/kg, dog No. 19, read-out: F (AUCpo /AUCiv)) of the same compound?
Answer: 4.5%

Question: What about the bioavailability (po, 10 mg/kg, oral 10 mg/kg, mean ± SD of 3 dogs, read-out: F (AUCpo /AUCiv)) of the same compound?
Answer: 3.5 ± 1%

Question: And the bioavailability (po, 10 mg/kg, oral, 10 mg/kg, read-out: Mean bioavailability (F))?
Answer: 4%

Question: And the Cmax [9]?
Answer: 68.4 ng/mL

Question: And the Tmax [9]?
Answer: 6 h

Question: And the half-life [9]?
Answer: 12.8 h

Question: And the Cmax [10]?
Answer: 42.9 ng/mL

Question: And the Tmax [10]?
Answer: 8 h

Question: What about the half-life [10] of the same compound?
Answer: 32.7 h

Question: What about the Cmax [11] of the same compound?
Answer: 44.7 ng/mL

Question: And the Tmax [11]?
Answer: 4 h

Question: And the half-life [11]?
Answer: 24.5 h

Question: What about the Cmax [12] of the same compound?
Answer: 52 ± 14.2 ng/mL

Question: And the Tmax [12]?
Answer: 6 ± 2 h

Question: And the half-life [12]?
Answer: 23.3 ± 10 h

Question: And the bioavailability (sc, 10 mg/kg, subcutaneous 10 mg/kg, dog No. 17, read-out: F)?
Answer: 41%

Question: What about the bioavailability (sc, 10 mg/kg, subcutaneous 10 mg/kg, dog No. 18, read-out: F) of the same compound?
Answer: 25%

Question: What about the bioavailability (sc, 10 mg/kg, subcutaneous 10 mg/kg, dog No. 19, read-out: F) of the same compound?
Answer: 36%

Question: And the bioavailability (sc, 10 mg/kg, subcutaneous, 10 mg/kg, read-out: Mean bioavailability (F))?
Answer: 34%

Question: And the bioavailability (topical or ocular, 10 mg/kg, dermal patch, 10 mg/kg, read-out: Mean bioavailability (F))?
Answer: 16%

Question: And the bioavailability (topical or ocular, 10 mg/kg, topical dermal cream, 10 mg/kg, read-out: Mean bioavailability (F))?
Answer: 7%

Question: What about the bioavailability (topical or ocular, 50 mg/kg, dermal patch, 50 mg/kg, read-out: Mean bioavailability (F)) of the same compound?
Answer: 12%

Question: And the bioavailability (topical or ocular, 50 mg/kg, topical dermal cream, 50 mg/kg, read-out: Mean bioavailability (F))?
Answer: 3%

Question: What about the “Metabolic Index (AUCun /AUCRAD)” value (iv 2 mg/kg, dog No. 17) of the same compound?
Answer: 0.011

Question: And the “Metabolic Index (AUCun /AUCRAD)” value (iv 2 mg/kg, dog No. 18)?
Answer: 0.015

Question: What about the “Metabolic Index (AUCun /AUCRAD)” value (iv 2 mg/kg, dog No. 19) of the same compound?
Answer: 0.009

Question: And the “Metabolic Index (AUCun /AUCRAD)” value (iv 2 mg/kg, mean ± SD of 3 dogs)?
Answer: 0.012 ± 0.003

Question: What about the “Metabolic Index (AUCun /AUCRAD)” value (oral 10 mg/kg, dog No. 17) of the same compound?
Answer: 0.0006

Question: And the “Metabolic Index (AUCun /AUCRAD)” value (oral 10 mg/kg, dog No. 18)?
Answer: 0.0011

Question: And the “Metabolic Index (AUCun /AUCRAD)” value (oral 10 mg/kg, dog No. 19)?
Answer: 0.0006

Question: What about the “Metabolic Index (AUCun /AUCRAD)” value (oral 10 mg/kg, mean ± SD of 3 dogs) of the same compound?
Answer: 0.0008 ± 0.0003

Question: And the “Metabolic Index (AUCun /AUCRAD)” value (subcutaneous 10 mg/kg, dog No. 17)?
Answer: 0.006

Question: What about the “Metabolic Index (AUCun /AUCRAD)” value (subcutaneous 10 mg/kg, dog No. 18) of the same compound?
Answer: 0.007

Question: What about the “Metabolic Index (AUCun /AUCRAD)” value (subcutaneous 10 mg/kg, dog No. 19) of the same compound?
Answer: 0.004

Question: What about the “Metabolic Index (AUCun /AUCRAD)” value (subcutaneous 10 mg/kg, mean ± SD of 3 dogs) of the same compound?
Answer: 0.006 ± 0.002
